The record followed here is patent US20090221581A1, “Methods of treating pain” (priority 2005, published 2009).

“Also recorded” adds a separate entry of the source.

The target in one assay is T1, CDK3/CycE (Homo sapiens, UniProt Q00526).
T1 construct: made in house; host or cells: Sf9 insect cells, baculovirus
The assay can be described thus: In vitro kinase inhibition assay, CDK3/CycE. It is filed as biochemical.

The next assay relates to formalin-treated mice. The assay can be described thus: Formalin assay, licking behaviour. It is filed as in vivo. Particulars: 30 mg/kg i.p. 30 min before formalin injection. The protocol: The formalin assay in mice is a valid and reliable behavioral model of nociception and is sensitive to various classes of analgesic drugs (Hunskaar S & Hole K, Pain. 1987, 30(1):103-14.) The noxious stimulus consists of a subcutaneous or an intraplantar injection of 10 μl diluted formalin (2% in saline) into the left hind paw. The response is licking and flinching of the injected paw.
Age, sex and weight matched wildtype mice (C3HeB/FeJ) were used in this assay. Prior to formalin injection, the animals were randomly subdivided into experimental groups of 10 animals each. […]
For formalin injection, the mouse was held with a paper towel in order to avoid disturbance of the injection by movements. […] The behavior of the formalin- and CDK-inhibitor-treated mice was analyzed as described below.
The behaviour of the formalin-treated mice, i.e. licking and flinching, was monitored by an automated tracking system (Ethovision 3.0 Color Pro, Noldus, Wageningen, Netherlands) over a defined period of time: measurement was initiated 5 min after formalin injection and terminated 30 min after formalin injection. […]
As another possibility of assay read-out, the licking behaviour of the individual animals was tracked manually based on video files. Licking times were recorded over 30 minutes after formalin injection and subdivided for three different licking zones (dorsum, plantar, toes). […]

T1 sequence (Q00526 whole entry): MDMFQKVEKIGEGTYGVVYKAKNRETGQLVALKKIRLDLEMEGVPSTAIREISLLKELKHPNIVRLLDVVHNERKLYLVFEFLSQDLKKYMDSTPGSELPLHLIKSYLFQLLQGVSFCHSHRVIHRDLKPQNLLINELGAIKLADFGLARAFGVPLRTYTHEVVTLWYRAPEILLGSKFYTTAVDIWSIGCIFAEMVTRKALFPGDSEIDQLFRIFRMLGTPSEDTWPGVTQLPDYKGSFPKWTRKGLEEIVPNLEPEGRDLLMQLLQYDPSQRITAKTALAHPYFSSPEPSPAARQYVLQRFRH
T1 sequence (P24864 whole entry partner): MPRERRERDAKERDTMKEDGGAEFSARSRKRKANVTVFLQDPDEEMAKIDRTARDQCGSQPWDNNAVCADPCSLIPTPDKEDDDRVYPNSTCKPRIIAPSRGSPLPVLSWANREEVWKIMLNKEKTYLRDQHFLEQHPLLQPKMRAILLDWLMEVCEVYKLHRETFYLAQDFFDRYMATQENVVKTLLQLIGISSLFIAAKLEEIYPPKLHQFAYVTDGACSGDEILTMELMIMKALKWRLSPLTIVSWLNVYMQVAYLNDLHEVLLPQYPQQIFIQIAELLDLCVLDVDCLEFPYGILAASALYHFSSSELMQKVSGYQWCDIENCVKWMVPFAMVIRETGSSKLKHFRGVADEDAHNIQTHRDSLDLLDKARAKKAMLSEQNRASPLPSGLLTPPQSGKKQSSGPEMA

As a reminder, the IC50 is the concentration needed to halve the response being measured. A low value points to higher potency. `COc1ccccc1-c1cc(Nc2cccc(S(N)(=O)=O)c2)ncn1` [Compound A] yielded a half-inhibitory concentration (IC50) against CDK3/CycE of 18.5 µM. Moreover, in the assay with formalin-treated mice, the “fluorescent dot size of the formalin-treated paw” value is on record as “no significant reduction of fluorescent dot size”. In addition, the licking time entry with formalin-treated mice (vs vehicle, 30 mg/kg) is given as “reduction in licking time; also recorded: clearly reduced”.
